Assay: Study 1 blood chemistry
Format: in vivo, human
Conditions: for Gamma-glutamyl: in U/L (unit assumed)
Experimental: Study 1 design. For study 1 the subjects reported to the laboratory in the morning following an overnight fast. Before ingestion of one of the supplemental treatments, a flexible sterile polyethylene catheter was inserted into a forearm vein using sterile procedures and a pre-ingestion blood sample was drawn. Subsequent blood samples were taken at 0, 2, 5, 10, 15, 25, 35, 45, 60, 90, 120 and 180 min after ingestion of the treatment. Plasma was separated and samples were stored frozen at −70° C. for analysis of HMB concentration. In addition, a portion of the pre-ingestion and 180 minute blood samples were used for measurements (LabCorp, Kansas City, Mo.) of glucose, uric acid, blood urea nitrogen (BUN), creatinine, sodium, potassium, chloride, carbon dioxide, phosphorous, protein, albumin, globulin, albumin:globulin ratio, total bilirubin, direct bilirubin, alkaline phosphatase, lactate dehydrogenase, aspartate aminotransferase (AST), alanine aminotransferase (ALT), gamma-glutamyl transpeptidase (GGT), iron binding capacity (TIBC), unsaturated iron binding capacity (UIBC), iron, iron saturation, total cholesterol, triglycerides, high density lipoprotein (HDL), low density lipoprotein (LDL), and cholesterol ratio. A complete blood count (CBC) was also performed before and after the 180 min treatment period. Subjects also completed a brief questionnaire to report any physical symptoms (such as nausea, headache, etc) they may have experienced during the experiment.
The data were analyzed using a crossover design with Proc GLM in SAS. (45) For the timed sampling of plasma HMB a repeated measures polynomial model was used. The model included subject, order, and treatment main effects and time by treatment interaction where appropriate. For other parameters Proc GLM was also used with subject, order, and treatment main effects and the p values are reported for the treatment main effect. Statistical significance was determined for p<0.05 and a trend was determined for 0.05<p<0.10.

[1] = After (180 min), listed as Free Acid Gel Swallow
[2] = Before to After, listed as Free Acid Gel Swallow
[3] = Before, listed as Free Acid Gel Swallow

With `CC(C)(O)CC(=O)O` [HMB-Acid Gel Swallow, 3-hydroxy-3-methylbutyric acid] the Albumin (After (180 min)) was 4.1 ± 0.2 g/dL, the “Direct Bilirubin” value (After (180 min)) was 0.1 ± 0.01 mg/dL and the “A:G Ratio” value [1] was 1.9 ± 0.1. For the same compound, the “Alanine Aminotransferase” value [1] was 15.6 ± 1.3 IU/L, the “Alkaline Phosphatase” value [1] was 64.4 ± 6.7 IU/L and the “Aspartate Aminotransferase” value [1] was 23.1 ± 2.0 IU/L. The “Blood Urea Nitrogen” value [1] was 14.4 ± 1.5 mg/dL, the CO2 [1] was 24.3 ± 0.5 mEq/L and the Chloride [1] was 103.3 ± 0.5 mEq/L. For the same compound, the “Cholesterol Ratio” value [1] was 3.3 ± 0.3, the Creatinine [1] was 0.9 ± 0.1 mg/dL and the Globulin [1] was 2.2 ± 0.1 g/dL. The Glucose [1] was 73.3 ± 4.1 mg/dL, the HDL [1] was 48.5 ± 3.7 mg/dL and the Iron [1] was 96.3 ± 17.3 µg/dL. For the same compound, the “Iron Binding Capacity” value [1] was 333.4 ± 35.2 µg/dL, the “Iron Saturation” value [1] was 33.5 ± 8.4% and the LDL [1] was 85.6 ± 4.1 mg/dL. The “Lactate Dehydrogenase” value [1] was 166.3 ± 11.1 IU/L, the Phosphorus [1] was 3.4 ± 0.1 mg/dL and the Potassium [1] was 4.6 ± 0.3 mEq/L. For the same compound, the Protein [1] was 6.3 ± 0.2 g/dL, the Sodium [1] was 138.3 ± 0.9 mEq/L and the “Total Bilirubin” value [1] was 0.5 ± 0.07 mg/dL. The “Total Cholesterol” value [1] was 153.3 ± 5.6 mg/dL, the Triglycerides [1] was 87.5 ± 14.8 mg/dL and the UIBC [1] was 237.1 ± 49.2 µg/dL. For the same compound, the “Uric Acid” value [1] was 4.9 ± 0.4 mg/dL, the Gamma-glutamyl [1] was 13.5 ± 1.1 and the “A:G Ratio” value (Before) was 1.9 ± 0.1. For the same compound, the Creatinine (Before) was 1.0 ± 0.1 mg/dL, the “Direct Bilirubin” value (Before) was 0.1 ± 0.01 mg/dL and the “Total Bilirubin” value (Before) was 0.4 ± 0.05 mg/dL. The “A:G Ratio % Change” value [2] was 0.0%, the “Alanine Aminotransferase % Change” value [2] was −1.6% and the “Albumin % Change” value [2] was 1.9%. For the same compound, the “Alkaline Phosphatase % Change” value [2] was 0.8%, the “Aspartate Aminotransferase % Change” value [2] was −3.6% and the “Blood Urea Nitrogen % Change” value [2] was −6.5%. For the same compound, the “CO2 % Change” value [2] was 8.1%, the “Chloride % Change” value [2] was −0.4% and the “Cholesterol Ratio % Change” value [2] was −3.3%. For the same compound, the “Creatinine % Change” value [2] was −4.7%, the “Direct Bilirubin % Change” value [2] was 7.9% and the “Gamma-glutamyl % Change” value [2] was −6.1%. The “Globulin % Change” value [2] was 0.6%, the “Glucose % Change” value [2] was 3.9% and the “HDL % Change” value [2] was 3.5%. The “Iron % Change” value [2] was 12.6%, the “Iron Binding Capacity % Change” value [2] was 1.4% and the “Iron Saturation % Change” value [2] was 9.4%. The “LDL % Change” value [2] was −3.1%, the “Lactate Dehydrogenase % Change” value [2] was −1.5% and the “Phosphorus % Change” value [2] was −15.6%. For the same compound, the “Potassium % Change” value [2] was 11.4%, the “Protein % Change” value [2] was 1.4% and the “Sodium % Change” value [2] was −0.2%. The “Total Bilirubin % Change” value [2] was 23.3%, the “Total Cholesterol % Change” value [2] was −0.2% and the “Triglycerides % Change” value [2] was −4.1%. The “UIBC % Change” value [2] was −2.5%, the “Uric Acid % Change” value [2] was 0.8% and the “Alanine Aminotransferase” value [3] was 15.9 ± 1.5 IU/L. For the same compound, the Albumin [3] was 4.0 ± 0.2 g/dL, the “Alkaline Phosphatase” value [3] was 63.9 ± 5.8 IU/L and the “Aspartate Aminotransferase” value [3] was 24.0 ± 2.2 IU/L. The “Blood Urea Nitrogen” value [3] was 15.4 ± 1.6 mg/dL, the CO2 [3] was 22.4 ± 0.7 mEq/L and the Chloride [3] was 103.6 ± 0.8 mEq/L. The “Cholesterol Ratio” value [3] was 3.4 ± 0.2, the Globulin [3] was 2.2 ± 0.1 g/dL and the Glucose [3] was 70.5 ± 1.7 mg/dL. The HDL [3] was 46.9 ± 3.4 mg/dL, the Iron [3] was 85.5 ± 19.2 µg/dL and the “Iron Binding Capacity” value [3] was 328.6 ± 31.0 µg/dL. The “Iron Saturation” value [3] was 30.6 ± 9.4%, the LDL [3] was 88.4 ± 3.0 mg/dL and the “Lactate Dehydrogenase” value [3] was 168.8 ± 10.4 IU/L. It also gave a Phosphorus [3] of 4.0 ± 0.1 mg/dL, a Potassium [3] of 4.2 ± 0.1 mEq/L and a Protein [3] of 6.2 ± 0.2 g/dL. For the same compound, the Sodium [3] was 138.5 ± 1.1 mEq/L, the “Total Cholesterol” value [3] was 153.5 ± 5.3 mg/dL and the Triglycerides [3] was 91.3 ± 17.0 mg/dL. The UIBC [3] was 243.1 ± 47.4 µg/dL, the “Uric Acid” value [3] was 4.9 ± 0.4 mg/dL and the Gamma-glutamyl [3] was 14.4 ± 1.6.

Reference: US20210113501A1, “METHOD OF ADMINISTERING BETA-HYDROXY-BETA-METHYLBUTYRATE (HMB)” (Metabolic Technologies, Inc., priority 2009, published 2021)
